Results reported in patent publication US7704995B2 (Exelixis, Inc., priority 2003, dated 2010).

Target: T1, Chk1 (Homo sapiens, UniProt O14757)
T1 construct: purchased Upstate Biotechnology
T1 sequence (O14757 1-476): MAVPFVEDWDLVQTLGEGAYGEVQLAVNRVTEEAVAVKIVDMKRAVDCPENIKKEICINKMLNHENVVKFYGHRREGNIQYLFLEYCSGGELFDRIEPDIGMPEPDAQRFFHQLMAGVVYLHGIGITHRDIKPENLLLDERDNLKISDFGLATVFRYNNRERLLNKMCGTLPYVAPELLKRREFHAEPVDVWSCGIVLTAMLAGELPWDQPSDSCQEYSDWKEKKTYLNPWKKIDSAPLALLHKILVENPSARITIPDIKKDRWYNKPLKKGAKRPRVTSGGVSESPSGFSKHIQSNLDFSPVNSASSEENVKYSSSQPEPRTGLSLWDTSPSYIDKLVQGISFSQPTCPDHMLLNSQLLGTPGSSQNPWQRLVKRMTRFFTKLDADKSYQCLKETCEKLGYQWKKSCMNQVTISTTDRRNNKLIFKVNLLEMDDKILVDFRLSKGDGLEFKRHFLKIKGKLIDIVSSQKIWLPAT
Assay: Chk1 kinase assay: incorporation of γ-33P ATP into immobilized myelin basic protein
Type: biochemical
Conditions: Table 11, Chk1 only; class symbols A-D; read-out: Chk1 IC50
How it was run: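 Read-out is scintillation counting of 33P incorporated into plate-bound myelin basic protein. Chk1 runs at 10 nM enzyme with 10 μM ATP, Chk2 at 20 nM with 30 μM ATP, each for 1 hour at room temperature. Duplicate points; IC50 taken as 50% activity reduction, Ki computed from IC50.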

Row | SMILES | IC50 [nM]
1 | Nc1ncc(-c2cccc(CNC(=O)Nc3ccc(-c4ccccc4)cc3)c2)nc1C(=O)N[C@H]1CCCNC1 [Example 908, 3-amino-6-[3-({[(biphenyl-4-ylamino)carbonyl]amino}methyl)phenyl]-N-[(3S)-piperidin-3-yl]pyrazine-2-carboxamide] | < 50
2 | Nc1ncc(-c2cccc(NC(=O)c3ccc(Br)cc3F)c2)nc1C(=O)N[C@H]1CCCNC1 [Example 909, 3-amino-6-(3-{[(4-bromo-2-fluorophenyl)carbonyl]amino}phenyl)-N-[(3S)-piperidin-3-yl]pyrazine-2-carboxamide] | < 50
3 | Nc1ncc(-c2cccc(NC(=O)c3cnc4ccccc4c3)c2)nc1C(=O)N[C@H]1CCCNC1 [Example 910, N-[3-(5-amino-6-{[(3S)-piperidin-3-ylamino]carbonyl}pyrazin-2-yl)phenyl]quinoline-3-carboxamide] | < 50
4 | COc1ccc2c(CC(=O)Nc3cccc(-c4cnc(N)c(C(=O)N[C@H]5CCCNC5)n4)c3)coc2c1 [Example 911, 3-amino-6-[3-({[6-(methyloxy)-1-benzofuran-3-yl]acetyl}amino)phenyl]-N-[(3S)-piperidin-3-yl]pyrazine-2-carboxamide] | < 50
5 | Nc1ncc(-c2cccc(NC(=O)c3ccccc3-c3ccc(C(F)(F)F)cc3)c2)nc1C(=O)N[C@H]1CCCNC1 [Example 912, 3-amino-N-[(3S)-piperidin-3-yl]-6-[3-({[4′-(trifluoromethyl)biphenyl-2-yl]carbonyl}amino)phenyl]pyrazine-2-carboxamide] | < 50
6 | Nc1ncc(-c2cccc(NC(=O)Cc3cc(C(F)(F)F)cc(C(F)(F)F)c3)c2)nc1C(=O)N[C@H]1CCCNC1 [Example 913, 3-amino-6-[3-({[3,5-bis(trifluoromethyl)phenyl]acetyl}amino)phenyl]-N-[(3S)-piperidin-3-yl]pyrazine-2-carboxamide] | < 50
7 | Nc1ncc(-c2cccc(CNC(=O)Nc3ccc(F)cc3F)c2)nc1C(=O)N[C@H]1CCCNC1 [Example 914, 3-amino-6-{3-[({[(2,4-difluorophenyl)amino]carbonyl}amino)methyl]phenyl}-N-[(3S)-piperidin-3-yl]pyrazine-2-carboxamide] | < 50
8 | Nc1ncc(-c2cccc(CNS(=O)(=O)c3ccccc3C(F)(F)F)c2)nc1C(=O)N[C@H]1CCCNC1 [Example 915, 3-amino-N-[(3S)-piperidin-3-yl]-6-{3-[({[2-(trifluoromethyl)phenyl]sulfonyl}amino)methyl]phenyl}pyrazine-2-carboxamide] | 50 to 1000
9 | Nc1ncc(-c2cccc(CNS(=O)(=O)c3ccc(OC(F)(F)F)cc3)c2)nc1C(=O)N[C@H]1CCCNC1 [Example 916, 3-amino-N-[(3S)-piperidin-3-yl]-6-(3-{[({4-[(trifluoromethyl)oxy]phenyl}sulfonyl)amino]methyl}phenyl)pyrazine-2-carboxamide] | 50 to 1000
10 | Nc1ncc(-c2cccc(CNS(=O)(=O)c3ccccc3OC(F)(F)F)c2)nc1C(=O)N[C@H]1CCCNC1 [Example 917, 3-amino-N-[(3S)-piperidin-3-yl]-6-(3-{[({2-[(trifluoromethyl)oxy]phenyl}sulfonyl)amino]methyl}phenyl)pyrazine-2-carboxamide] | 50 to 1000
11 | Nc1ncc(-c2cccc(CNS(=O)(=O)c3ccc(C(F)(F)F)cc3)c2)nc1C(=O)N[C@H]1CCCNC1 [Example 918, 3-amino-N-[(3S)-piperidin-3-yl]-6-{3-[({[4-(trifluoromethyl)phenyl]sulfonyl}amino)methyl]phenyl}pyrazine-2-carboxamide] | 50 to 1000
12 | Nc1ncc(-c2cccc(CNC(=O)Nc3ccccc3OC(F)(F)F)c2)nc1C(=O)N[C@H]1CCCNC1 [Example 919, 3-amino-N-[(3S)-piperidin-3-yl]-6-[3-({[({2-[(trifluoromethyl)oxy]phenyl}amino)carbonyl]amino}methyl)phenyl]pyrazine-2-carboxamide] | 50 to 1000
13 | CSc1ccccc1NC(=O)NCc1cccc(-c2cnc(N)c(C(=O)N[C@H]3CCCNC3)n2)c1 [Example 920, 3-amino-6-(3-{[({[2-(methylthio)phenyl]amino}carbonyl)amino]methyl}phenyl)-N-[(3S)-piperidin-3-yl]pyrazine-2-carboxamide] | < 50
14 | Cc1cc(Br)cc(NC(=O)NCc2cccc(-c3cnc(N)c(C(=O)N[C@H]4CCCNC4)n3)c2)c1 [Example 921, 3-amino-6-{3-[({[(3-bromo-5-methylphenyl)amino]carbonyl}amino)methyl]phenyl}-N-[(3S)-piperidin-3-yl]pyrazine-2-carboxamide] | < 50
15 | Nc1ncc(-c2cccc(CNC(=O)Nc3ccccc3Br)c2)nc1C(=O)N[C@H]1CCCNC1 [Example 922, 3-amino-6-{3-[({[(2-bromophenyl)amino]carbonyl}amino)methyl]phenyl}-N-[(3S)-piperidin-3-yl]pyrazine-2-carboxamide] | < 50
16 | NCc1cccc(-c2cnc(N)c(-c3nc([C@H]4CCCNC4)n[nH]3)n2)c1 [Example 923, 5-[3-(aminomethyl)phenyl]-3-{3-[(3S)-piperidin-3-yl]-1H-1,2,4-triazol-5-yl}pyrazin-2-amine] | < 50
17 | CN1CCN(c2ccc(CNC(=O)c3cccc(-c4cnc(N)c(C(=O)N[C@H]5CCCNC5)n4)c3)cc2)CC1 [Example 924, 3-amino-6-{3-[({[4-(4-methylpiperazin-1-yl)phenyl]methyl}amino)carbonyl]phenyl}-N-[(3S)-piperidin-3-yl]pyrazine-2-carboxamide] | < 50
18 | Nc1ncc(-c2cccc(C(=O)NCCc3ccc(F)cc3)c2)nc1C(=O)N[C@H]1CCCNC1 [Example 925, 3-amino-6-[3-({[2-(4-fluorophenyl)ethyl]amino}carbonyl)phenyl]-N-[(3S)-piperidin-3-yl]pyrazine-2-carboxamide] | < 50
19 | Nc1ncc(-c2cccc(C(=O)NCCN3CCOCC3)c2)nc1C(=O)N[C@H]1CCCNC1 [Example 926, 3-amino-6-(3-{[(2-morpholin-4-ylethyl)amino]carbonyl}phenyl)-N-[(3S)-piperidin-3-yl]pyrazine-2-carboxamide] | 50 to 1000
20 | Nc1ncc(-c2cccc(C(=O)NC[C@H]3CCCN3)c2)nc1C(=O)N[C@H]1CCCNC1 [Example 927, 3-amino-N-[(3S)-piperidin-3-yl]-6-[3-({[(2R)-pyrrolidin-2-ylmethyl]amino}carbonyl)phenyl]pyrazine-2-carboxamide] | < 50
21 | Nc1ncc(-c2cccc(C(=O)N[C@H]3CCCN3)c2)nc1C(=O)N[C@H]1CCCNC1 [Example 928, 3-amino-N-[(3S)-piperidin-3-yl]-6-(3-{[(2S)-pyrrolidin-2-ylamino]carbonyl}phenyl)pyrazine-2-carboxamide] | < 50
22 | Nc1ncc(-c2cccc(C(=O)NC3CCCC3)c2)nc1C(=O)N[C@H]1CCCNC1 [Example 929, 3-amino-6-{3-[(cyclopentylamino)carbonyl]phenyl}-N-[(3S)-piperidin-3-yl]pyrazine-2-carboxamide] | 50 to 1000
23 | Nc1ncc(-c2cccc(CNC(=O)Nc3ccc(OC(F)(F)F)cc3)c2)nc1C(=O)N[C@H]1CCCNC1 [Example 930, 3-amino-N-[(3S)-piperidin-3-yl]-6-[3-({[({4-[(trifluoromethyl)oxy]phenyl}amino)carbonyl]amino}methyl)phenyl]pyrazine-2-carboxamide] | < 50
24 | Nc1ncc(-c2cccc(CNC(=O)Nc3ccc(C(F)(F)F)cc3)c2)nc1C(=O)N[C@H]1CCCNC1 [Example 931, 3-amino-N-[(3S)-piperidin-3-yl]-6-(3-{[({[4-(trifluoromethyl)phenyl]amino}carbonyl)amino]methyl}phenyl)pyrazine-2-carboxamide] | < 50
25 | COc1ccc(C(=O)NCc2cccc(-c3cnc(N)c(C(=O)N[C@H]4CCCNC4)n3)c2)cc1 [Example 932, 3-amino-6-{3-[({[4-(methyloxy)phenyl]carbonyl}amino)methyl]phenyl}-N-[(3S)-piperidin-3-yl]pyrazine-2-carboxamide] | < 50
26 | Nc1ncc(-c2cccc(CNC(=O)c3ccc(-c4ccccc4)cc3)c2)nc1C(=O)N[C@H]1CCCNC1 [Example 933, 3-amino-6-(3-{[(biphenyl-4-ylcarbonyl)amino]methyl}phenyl)-N-[(3S)-piperidin-3-yl]pyrazine-2-carboxamide] | < 50
27 | Nc1ncc(-c2cccc(CNC(=O)c3ccco3)c2)nc1C(=O)N[C@H]1CCCNC1 [Example 934, 3-amino-6-(3-{[(furan-2-ylcarbonyl)amino]methyl}phenyl)-N-[(3S)-piperidin-3-yl]pyrazine-2-carboxamide] | < 50
28 | Nc1ncc(-c2cccc(CNC(=O)Nc3ccc4c(c3)OCCO4)c2)nc1C(=O)N[C@H]1CCCNC1 [Example 935, 3-amino-6-[3-({[(2,3-dihydro-1,4-benzodioxin-6-ylamino)carbonyl]amino}methyl)phenyl]-N-[(3S)-piperidin-3-yl]pyrazine-2-carboxamide] | < 50
29 | Nc1ncc(-c2cccc(CNC(=O)c3ccc4c(c3)CCO4)c2)nc1C(=O)N[C@H]1CCCNC1 [Example 936, 3-amino-6-(3-{[(2,3-dihydro-1-benzofuran-5-ylcarbonyl)amino]methyl}phenyl)-N-[(3S)-piperidin-3-yl]pyrazine-2-carboxamide] | < 50
